Experimental data: US7772241B2, “Variolin derivatives and their use as antitumor agents” (Pharma Mar S.A., priority 2001, dated 2010)

Assays:
K-562 = assay: Inhibition of cells growth by colorimetric (SRB) assay, K-562; conditions: SRB assay, 48 hours exposure
How it was run: (§1)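 Human tumour cells seeded at 5×10^3/well in RPMI 1640 10% FBS, attached 18 h, then exposed 48 h to samples at 10 to 10^−8 μg/ml in DMSO/EtOH/PBS (0.5:0.5:99). Growth read by SRB staining after TCA fixation, OD 490 nm, triplicate wells; GI, TGI and LC derived.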

A-549 = assay: Inhibition of cells growth by colorimetric (SRB) assay, A-549
How it was run: as §1

SK-MEL-28 = assay: Inhibition of cells growth by colorimetric (SRB) assay, SK-MEL-28
How it was run: as §1

HT-29 = assay: Inhibition of cells growth by colorimetric (SRB) assay, HT-29
How it was run: as §1

LoVo = assay: Inhibition of cells growth by colorimetric (SRB) assay, LoVo
How it was run: as §1

LoVo-Dox = assay: Inhibition of cells growth by colorimetric (SRB) assay, LoVo-Dox
How it was run: as §1

DU-145 = assay: Inhibition of cells growth by colorimetric (SRB) assay, DU-145
How it was run: as §1

LNCaP = assay: Inhibition of cells growth by colorimetric (SRB) assay, LNCaP; conditions: SRB assay, 48 hours exposure
How it was run: as §1

SK-BR-3 = assay: Inhibition of cells growth by colorimetric (SRB) assay, SK-BR-3
How it was run: as §1

IGROV-1 = assay: Inhibition of cells growth by colorimetric (SRB) assay, IGROV-1
How it was run: as §1

IGROV-ET = assay: Inhibition of cells growth by colorimetric (SRB) assay, IGROV-ET
How it was run: as §1

SK-OV-3 = assay: Inhibition of cells growth by colorimetric (SRB) assay, SK-OV-3; conditions: SRB assay, 48 hours exposure
How it was run: as §1

PANC-1 = assay: Inhibition of cells growth by colorimetric (SRB) assay, PANC-1
How it was run: as §1

[1] = Inhibition of cells growth by colorimetric (SRB) assay, HMEC1; conditions: human, HMEC1 cells, LC50 H-MEC-1, SRB assay, 48 hours exposure
HMEC1 = assay: as above

Structure (SMILES): CCOc1nccc(-c2c3cccnc3n3c(N)nccc23)n1.Cl [Compound 82]
- TGI K-562 (K-562): 7.32E−07
- GI50 (K-562; read-out: GI50 K-562): 531 nM
- CC50 (K-562; read-out: LC50 K-562): 1010 nM
- GI50 (A-549; Homo sapiens, A549, 48 h, read-out: GI50 A-549, SRB assay, 48 hours exposure): 29.2 µM
- CC50 (A-549; Homo sapiens, A549, 48 h, read-out: LC50 A-549, SRB assay, 48 hours exposure): 29.2 µM
- TGI A-549 (A-549; SRB assay, 48 hours exposure): 2.92E−05
- GI50 (SK-MEL-28; Homo sapiens, SK-MEL-28, 48 h, read-out: GI50 MEL-28, SRB assay, 48 hours exposure): 365 nM
- CC50 (SK-MEL-28; Homo sapiens, SK-MEL-28, 48 h, read-out: LC50 MEL-28, SRB assay, 48 hours exposure): 1730 nM
- TGI MEL-28 (SK-MEL-28; SRB assay, 48 hours exposure): 7.93E−07
- GI50 (HT-29; Homo sapiens, HT-29, 48 h, read-out: GI50 HT-29, SRB assay, 48 hours exposure): 712 nM
- TGI HT-29 (HT-29; SRB assay, 48 hours exposure): 2.92E−06
- GI50 (LoVo; Homo sapiens, LoVo, 48 h, read-out: GI50 LOVO, SRB assay, 48 hours exposure): 665 nM
- CC50 (LoVo; Homo sapiens, LoVo, 48 h, read-out: LC50 LOVO, SRB assay, 48 hours exposure): 29.2 µM
- TGI LOVO (LoVo; SRB assay, 48 hours exposure): 2.15E−06
- GI50 (LoVo-Dox; Homo sapiens, 48 h, read-out: GI50 LOVO-DOX, SRB assay, 48 hours exposure): 700 nM
- CC50 (LoVo-Dox; Homo sapiens, 48 h, read-out: LC50 LOVO-DOX, SRB assay, 48 hours exposure): 12.1 µM
- TGI LOVO-DOX (LoVo-Dox; SRB assay, 48 hours exposure): 2.72E−06
- GI50 (DU-145; Homo sapiens, DU-145, 48 h, read-out: GI50 DU-145, SRB assay, 48 hours exposure): 715 nM
- TGI DU-145 (DU-145; SRB assay, 48 hours exposure): 1.51E−06
- CC50 (DU-145; read-out: LC50 DU-145, SRB assay, 48 hours exposure): 2920 nM
- TGI LN-caP (LNCaP): 1.57E−06
- GI50 (LNCaP; read-out: GI50 LN-caP): 887 nM
- CC50 (LNCaP; read-out: LC50 LN-caP): 2280 nM
- GI50 (SK-BR-3; Homo sapiens, SK-BR-3, 48 h, read-out: GI50 SK-BR-3, SRB assay, 48 hours exposure): 560 nM
- CC50 (SK-BR-3; Homo sapiens, SK-BR-3, 48 h, read-out: LC50 SK-BR-3, SRB assay, 48 hours exposure): 2260 nM
- TGI SK-BR-3 (SK-BR-3; SRB assay, 48 hours exposure): 1.12E−06
- GI50 (IGROV-1; Homo sapiens, IGROV-1, 48 h, read-out: GI50 IGROV, SRB assay, 48 hours exposure): 971 nM
- CC50 (IGROV-1; Homo sapiens, IGROV-1, 48 h, read-out: LC50 IGROV, SRB assay, 48 hours exposure): 29.2 µM
- TGI IGROV (IGROV-1; SRB assay, 48 hours exposure): 1.76E−06
- CC50 (IGROV-ET; Homo sapiens, 48 h, read-out: LC50 IGROV-ET, SRB assay, 48 hours exposure): 29.2 µM
- TGI IGROV-ET (IGROV-ET; SRB assay, 48 hours exposure): 2.32E−07
- GI50 (IGROV-ET; read-out: GI50 IGROV-ET, SRB assay, 48 hours exposure): 89 nM
- TGI SKOV-3 (SK-OV-3): 2.91E−06
- GI50 (SK-OV-3; read-out: GI50 SKOV-3): 992 nM
- GI50 (PANC-1; Homo sapiens, PANC-1, 48 h, read-out: GI50 PANC-1, SRB assay, 48 hours exposure): 1030 nM
- CC50 (PANC-1; Homo sapiens, PANC-1, 48 h, read-out: LC50 PANC-1, SRB assay, 48 hours exposure): 29.2 µM
- TGI PANC-1 (PANC-1; SRB assay, 48 hours exposure): 6.77E−06
- CC50 at 48 h [1]: 1550 nM
- GI50 (HMEC1; Homo sapiens, HMEC-1, 48 h, read-out: GI50 H-MEC-1, SRB assay, 48 hours exposure): 341 nM
- TGI H-MEC-1 (HMEC1; SRB assay, 48 hours exposure, in M (unit assumed)): 7.29E−07
